Measured values reported in patent publication US20060189641A1, “Novel 6-phenlyphenanthridines” (priority 2003, published 2006).

tested on: PDE4; assay: Inhibition of the PDE4 activity (cytosol from human neutrophils, [3H]cAMP hydrolysis); assay type: biochemical; set-up: unit not given here; conditions: 0.5 μM cAMP, Motapizone 1 μM to suppress PDE3
Experimental: Method for Measuring Inhibition of PDE4 Activity
PDE4 activity was determined as described by Thompson et al. (Adv Cycl Nucl Res 10:69-92, 1979) with some modifications (Bauer and Schwabe, Naunyn-Schmiedeberg's Arch Pharmacol 311:193-198, 1980). At a final assay volume of 200 μl (96well microtiter plates) the assay mixture contained 20 mM Tris (pH 7.4), 5 mM MgCl2, 0.5 μM cAMP, [^3H]cAMP (about 30,000 cpm/assay), the test compound and an aliquot of cytosol from human neutrophilis which mainly contains PDE4 activity as described by Schudt et al. (Naunyn-Schmledeberg's Arch Pharmacol 344:682-690, 1991); the PDE3-specific inhibitor Motapizone (1 μM) was included to suppress PDE3 activity originating from contaminating platelets. Serial dilutions of the compounds were prepared in DMSO and further diluted 1:100 (v/v) in the assays to obtain the desired final concentrations of the inhibitors at a DMSO concentration of 1% (v/v) which by itself only slightly affected PDE4 activity.
After preincubation for 5 min at 37° C., the reaction was started by the addition of substrate (cAMP) and the assays were incubated for further 15 min at 37° C. 50 μl of 0.2 N HCl was added to stop the reaction and the assays were left on ice for about 10 min. Following incubation with 25 μg 5′-nucleotidase (Crotalus atrox snake venom) for 10 min at 37° C., the assays were loaded on QAE Sephadex A-25 (1 ml bed volume). The columns were eluted with 2 ml of 30 mM ammonium formulate (pH 6.0) and the […] for radioactivity. Results were corrected for blank values (measured in the presence of denatured protein) which were below 5% of total radioactivity. […] The IC50 -values for the compounds according to the invention for the inhibition of the PDE4 activity were determined from the concentration-inhibition curves by nonlinear-regression.

SMILES	−log IC50, Inhibition of the PDE4 activity
COc1cc2c(cc1OC)[C@H]1CCCC[C@H]1N=C2c1ccc(C(C)=NO)cc1 [Compound 1, 1-[4-((4aR,10bR)-8,9-Dimethoxy-1,2,3,4,4a,10b-hexahydrophenanthridin-6-yl}-phenyl]-ethanone oxime]	9.43
COc1cc2c(cc1OC)C1CCCCC1N=C2c1ccc(C(=NO)c2ccccc2)cc1 [Compound 2, 1-[4-((4aR,10bR)-8,9-Dimethoxy-1,2,3,4a,10b-hexahydrophenanthridin-6-yl}phenyl]-1-phenyl-methanone oxime]	9.04
COc1cc2c(cc1OC)[C@H]1CCCC[C@H]1N=C2c1ccc(C(C)=NOCc2ccccc2)cc1 [Compound 4, 1-[4-((4aR,10bR)-8,9-Dimethoxy-1,2,3,4,4a,10b-hexahydrophenanthridin-6-yl}-phenyl]-ethanone O-benzyloxime]	8.20
COc1cc2c(cc1OC)[C@H]1CCCC[C@H]1N=C2c1ccc(C(C)=NOCc2ccc([N+](=O)[O-])cc2)cc1 [Compound 5, 1-[4-((4aR,10bR)-8,9-Dimethoxy-1,2,3,4,4a,10b-hexahydrophenanthridin-6-yl}-phenyl]-ethanone O-(4-nitrobenzyl)-oxime]	8.41
CCON=C(C)c1ccc(C2=N[C@@H]3CCCC[C@@H]3c3cc(OC)c(OC)cc32)cc1 [Compound 6, 1-[4-((4aR,10bR)-8,9-Dimethoxy-1,2,3,4,4a,10b-hexahydrophenanthridin-6-yl}-phenyl]ethanone O-ethyloxime]	8.08
COc1cc2c(cc1OC)C1CCCCC1N=C2c1ccc(C(C)=NOc2ccccc2)cc1 [Compound 7, 1-[4-((4aR,10bR)-8,9Dimethoxy-1,2,3,4,a,10b-hexahydrophenanthridin-6-yl}-phenyl]ethanone O-phenyloxime]	8.26
COc1cc2c(cc1OC)[C@H]1CCCC[C@H]1N=C2c1ccc(C(C)=NOCC(C)C)cc1 [Compound 8, 1-[4-((4aR,10bR)-8,9-Dimethoxy-1,2,3,4,4a,10b-hexahydrophenanthridin-6yl)-phenyl]-ethanone O-isobutyloxime]	8.01
COc1ccccc1NC(=O)CON=C(C)c1ccc(C2=N[C@@H]3CCCC[C@@H]3c3cc(OC)c(OC)cc32)cc1 [Compound 11, 2-{1-[4-((4aR,10bR)-8,9-Dimethoxy-1,2,3,4,4a,10b-hexahydrophenanthridin-6-yl)-phenyl]ethylideneaminooxy}-N-(2-methoxyphenyl)-acetamide]	8.87
COc1cc2c(cc1OC)C1CCCCC1N=C2c1ccc(C(C)=NOCC(=O)NCc2ccc(Cl)cc2)cc1 [Compound 12, N-(4-Chlorobenzyl)-2-{1-[4-((4aR,10bR)-8,9-dimethoxy-1,2,3,4,a,10b-hexahydrophenanthridin-6-yl)-phenyl]-ethylideneaminooxy}-acetamide]	8.48
COc1cc2c(cc1OC)C1CCCCC1N=C2c1ccc(C(C)=NOCc2cccc(Cl)c2)cc1 (centres unmarked) [Compound 13]	8.41
COc1cc2c(cc1OC)[C@H]1CCCC[C@H]1N=C2c1ccc(C(C)=NOCc2cccc(C(F)(F)F)c2)cc1 [Compound 14, 1-[4-((4aR,10bR)-8,9-Dimethoxy-1,2,3,4,4a,10b-hexahydrophenanthridin-6-yl}-phenyl]-ethanone O-(3-trifluoromethylbenzyl)-oxime]	8.43

Second part, the molecule after the results:

−log IC50, Inhibition of the PDE4 activity	SMILES
8.33	COc1ccccc1CON=C(C)c1ccc(C2=N[C@@H]3CCCC[C@@H]3c3cc(OC)c(OC)cc32)cc1 [Compound 15, 1-[4-((4aR,10bR)-8,9-Dimethoxy-1,2,3,4,4a,10b-hexahydrophenanthridin-6-yl}-phenyl]-ethanone O-(2-methoxy-benzyl)-oxime]
8.36	COc1cc2c(cc1OC)[C@H]1CCCC[C@H]1N=C2c1ccc(C(C)=NOCc2ccc(F)cc2)cc1 [Compound 16, 1-[4-((4aR,10bR)-8,9-Dimethoxy1,2,3,4,4a,10b-hexahydrophenanthridin-6-yl}-phenyl]-ethanone O-(4-flurobenzyl)-oxime]
8.47	COc1cc2c(cc1OC)[C@H]1CCCC[C@H]1N=C2c1ccc(C(C)=NOCc2cccc(F)c2)cc1 [Compound 17]
8.73	COc1cc2c(cc1OC)[C@H]1CCCC[C@H]1N=C2c1ccc(C(C)=NOCc2ccccc2Cl)cc1 [Compound 18, 1-[4-((4aR,10bR)-8,9-Dimethoxy-1,2,3,4,4a,10b-hexahydrophenanthridin-6-yl}-phenyl]-ethanone O-(2-chlorobenzyl)-oxime]
8.73	COc1cc2c(cc1OC)[C@H]1CCCC[C@H]1N=C2c1ccc(C(C)=NOCCOc2ccccc2)cc1 [Compound 19, 1-[4-((4aR,10bR)-8,9-Dimethoxy-1,2,3,4,4a,10b-hexahydrophenanthridin-6-yl)-phenyl]-ethanone O-(2-phenoxyethyl)-oxime]
8.00	COc1cc2c(cc1OC)[C@H]1CCCC[C@H]1N=C2c1ccc(C(C)=NOCCOc2cccc(C(F)(F)F)c2)cc1 [Compound 20, 1-[4-((4aR,10bR)-8,9-Dimethoxy-1,2,3,4,4a,10b-hexahydrophenanthridin-6-yl}-phenyl]-ethanone O-[2-(3-trifluoromethylphenoxy)-ethyl]-oxime]
8.62	COc1cc2c(cc1OC)[C@H]1CCCC[C@H]1N=C2c1ccc(C(C)=NOCc2ccc(Cl)cc2)cc1 [Compound 22, 1-[4-((4aR,10bR)-8,9-Dimethoxy-1,2,3,4,4a,10b-hexahydrophenanthridin-6-yl)-phenyl]-ethanone O-(4-chlorobenzyl)-oxime]
8.75	COc1ccc(CON=C(C)c2ccc(C3=NC4CCCCC4c4cc(OC)c(OC)cc43)cc2)cc1 [Compound 23, 1-[4-((4aR,10bR)-8,9-Dimethoxy-1,2,3,4,4a,10b-hexahydrophenanthridin-6}-phenyl]-ethanone O-(4-methoxybenzyl)-oxime]
8.25	COc1cc2c(cc1OC)[C@H]1CCCC[C@H]1N=C2c1ccc(C(C)=NOCC(=O)N2CCOCC2)cc1 [Compound 24, 2-{1-[4-((4aR,10bR)-8,9-Dimethoxy-1,2,3,4,4a,10b-hexahydrophenanthridin-6-yl)-phenyl]-ethylideneaminooxy}-1-morpholin-4-yl-ethanone]
8.33	COc1cc2c(cc1OC)C1CCCCC1N=C2c1cccc(C(C)=NO)c1 (centres unmarked) [Compound 25]
9.27	COc1cc2c(cc1OC)[C@H]1CCCC[C@H]1N=C2c1cccc(C(=NO)c2ccccc2)c1 [Compound 26, 1-[3-((4aR,10bR)-8,9-Dimethoxy-1,2,3,4,4a,10b-hexahydrophenanthridin-6-yl}-phenyl]-1-phenyl-methanone oxime]

tested on: not given; assay: not given; conditions: not given

melting point [°C]	SMILES
189 to 192	COc1cc2c(cc1OC)[C@H]1CCCC[C@H]1N=C2c1ccc(C(C)=NO)cc1 [Compound 1, 1-[4-((4aR,10bR)-8,9-Dimethoxy-1,2,3,4,4a,10b-hexahydrophenanthridin-6-yl}-phenyl]-ethanone oxime]
